Experimental data: article PMC12188386, “Selective CBP/EP300 Bromodomain Inhibitors: Novel Epigenetic Tools to Counter TNF-α-Driven Inflammation” (JACS Au, 2025)

Assays:
[1] = tested on: MRC5 cells; assay: viability assay (resazurin); assay type: cell-based; details: three-day treatment, concentration resulting in 70 % viability
Description: MRC5 (2x10^3 cells/well) or THP-1 (8x10^3 cells/well) cells were plated onto 96 well plates and treated with compounds at a final DMSO concentration of 0.5 % (MRC5) or 0.1 % (THP-1).
After 3 days of treatment, resazurin (Acros Organics) was added at a final concentration of 86 μ and incu ated for 2h15 (MRC5) or 3 h (THP-1). Fluorescence (ex. 560 nm, em. 590 nm) was read using a SpectraMax M5 (Molecular devices). GI30 values were calculated as the compound concentration resulting in 70 % viability compared to DMSO treated controls using a nonlinear regression fit using GraphPad Prism with the following equation: (Y=Bottom + (100-Bottom)/(1+(IC50/X)^HillSlope)). […]
After 1.5 h, mice were injected with 10 µL of the prepared CAPTISOL […]
foodpad and also intraperitoneally (for i.p. injection, the 10 µL of CAPTISOL solution was diluted to a final volume of 100 µL using PBS). Organs were collected 5 h after TNF-α […]
LEGENDPlexTM assays (Mouse Pro-inflammatory Chemokine Panel and Mouse Inflammation Panel; Biolegend) were performed to monitor cytokine/chemokine expression. Briefly, popliteal LNs were collected and carefully disrupted in […] ice-cold phosphate buffer, minimizing cell rupture. The suspension was centrifuged at 1,500 rpm for 5 min, and the […]

[2] = concentration in saturated 12.5% CAPTISOL solution; assay type: physicochemical; details: filtered 12.5 w/v% CAPTISOL in water, st. dev. between technical replicates (n=2)
Description: (§1) was used as the calibration curve. To obtain saturated solutions of the compounds of interest, in duplicates 4.4 µL of a 10 or 5 mM stock in DMSO was added to 436 µL Buffer (PBS, pH = 7.4), to give a final concentration of 100 or 50 µM. Samples were incubated on a shaker (500 rpm) at 37°C for 90 minutes and then filtered (Millex-GV 13 mm, 0.22 µm). 304 µL of the filtrate was mixed with 76 µL of acetonitrile on a dilution plate, from which 350 µL was transferred to a UV-plate and UV-absorption was read using a SpectraMax M5 (Molecular devices). The absorbance was blank-corrected and compared to the calibration curve to […]
solubility. The wavelengths used for the calibration curve are available in Table S4.
Sample preparation in CAPTISOL® […]
lower solubility (2) compounds respectively in a 12.5 w/v% CAPTISOL® solution in water. In a precisely tared vial, required amounts of compounds and CAPTISOL® were weighed out as solids. Based on the known density of 12.5 % CAPTISOL® solution (d = 1.05755 g/mL at 25 °C), the precise weight of the resulting solution and so the required amount of water by weight was calculated. The water was added portion wise with agitation, vortexing and sonication cycles in between additions. The saturated solutions were then filtered (Millex-GV 13 mm, 0.22 µm). In duplicates, aliquots of the filtrates were taken and diluted with blank 12.5 % CAPTISOL® water solution in either a 1:14 (higher sol. compounds) or 1:7 (lower sol. compounds) ratio, 350 µL was transferred to a 96-Well Plate (Greiner, UV-star) then UV absorption (240-400 nm, 10 nm steps) was measured using a SpectraMax M5 (Molecular devices). The absorption was blank-corrected, compared to the calibration curve obtained during the solubility measurement method above and finally corrected for the dilution ratio to obtain the compound concentration in the saturated 12.5 % CAPTISOL® solution. The calculated concentrations are available in Table S4.
BROMOscan™ assays (provided by Eurofins DiscoverX, US)1,2 […]
coli host derived from the BL21 strain. […]

[3] = tested on: 786-0; assay: NCI-60 one-dose screen; assay type: cell-based, human; details: 10 µM, 48 h, Renal Cancer
Description: (§2) Adapted from NCI-60 Screening Methodology, one-dose screen:20 Briefly, human tumor cell lines, grown in RPMI 1640 containing 5% FBS and 2 mM L-glutamine, were plated in 96 well plates at densities ranging from 5,000 to 40,000 cells/well 24 h prior to addition of test compounds (here 10 μM 2). 400x solutions of test compounds were prepared in DMSO, then diluted to 2x in medium supplemented with 50 μg/mL gentamicin. 100 μl of this 2x stock was added to cells previously plated in 100 μl medium, resulting in the desired final compound concentration. Cells were fixed in situ with cold TCA: untreated cells at the time of compound addition (Tz) and treated cells 48 h after addition of compound (Ti). Cells were washed, then su f rh damine s uti n μ at . w/v in acetic acid was added to each well and incubated for 10 minutes at room temperature. After washing again, the plates were air dried and bound stain solubilized with 10 mM Trizma base before absorbance was […]
(§3) Percentage growth (%Growth) was calculated as follows:
(§4) when Ti ≥ Tz, %Growth = Ti − Tz x 100 where Ti = absorbance from compound treated cells, Tz = absorbance from untreated cells at time zero, and C = absorbance from control (DMSO) treated cells. […]

[4] = tested on: SNB-75; assay: NCI-60 one-dose screen; assay type: cell-based, human; details: 10 µM, 48 h, CNS Cancer
Description: as §2, §3, §4

[5] = tested on: panel of 32 bromodomains; assay: bromoMAX BROMOscan panel; assay type: binding; details: 1 µM
Description: as §1
solubility. […]
lower solubility (2) compounds respectively in a 12.5 w/v% CAPTISOL® solution in water. […] Based on the known density of 12.5 % CAPTISOL® solution (d = 1.05755 g/mL at 25 °C), the precise weight of the resulting solution and so the required amount of water by weight was calculated. […] In duplicates, aliquots of the filtrates were taken and diluted with blank 12.5 % CAPTISOL® water solution in either a 1:14 (higher sol. compounds) or 1:7 (lower sol. compounds) ratio, 350 µL was transferred to a 96-Well Plate (Greiner, UV-star) then UV absorption (240-400 nm, 10 nm steps) was measured using a SpectraMax M5 (Molecular devices). […] The calculated concentrations are available in Table S4. […]
The bromodomain concentration in the eluates was measured by qPCR. […]

Compound | GI30 [1] [µM] | Conc. in 12.5% Captisol sol. [2] [µM] | %Growth [3] [%] | %Growth [4] [%] | selectivity over BRD4(1) and a broader panel of BRD-containing proteins [5]
Cc1cc2c(NC(=O)c3cc(NC(=O)c4ccco4)cc(-c4ccn(C)n4)c3)cccc2nn1 [Compound 2] | > 10 | 160 ± 1 | 57 | 27 | highly selective
Cc1cc2c(NC(=O)c3cc(NC(=O)[C@H]4CCCO4)cc(-c4ccn(C)n4)c3)cccc2nn1 [Compound 5] | > 10 | 790 ± 18 |  |  | highly selective
